In data set [1] the test system is Staphylococcus aureus X1.1. Put plainly: agar-dilution MIC. Type of data set: cell-based.
Data set [2] has as its system Staphylococcus aureus V41. In words: agar-dilution MIC. In kind it is cell-based. As to conditions: Staphylococcus aureus V41, penicillin-resistant strain.
Experimental: (§1) In Table VII activity is measured by the minimal inhibitory concentration (MIC), i.e. the lowest concentration of compound at which growth of the microorganism is inhibited by the test compound.
For data set [3], the system named is Staphylococcus aureus X400. In words: agar-dilution MIC. In kind it is cell-based. To be noted: Staphylococcus aureus X400, methicillin-resistant strain.
Experimental: as §1
The test system of data set [4] is Staphylococcus epidermidis EP11. In words: agar-dilution MIC. Type of data set: cell-based.
Experimental: as §1
The subject of data set [5] is Staphylococcus epidermidis EP12. In words: agar-dilution MIC. Type of data set: cell-based.
Experimental: as §1
Data set [6] has as its system Streptococcus Group D X66. Put plainly: agar-dilution MIC. In kind it is cell-based.
Experimental: as §1
The test system of data set [7] is Streptococcus Group D 9960. Put plainly: agar-dilution MIC. Type of data set: cell-based.
Data set [8] concerns Streptococcus pyogenes. Put plainly: experimental bacterial infection in mice, ED50. In kind it is in vivo. As to conditions: two doses.
A short description of data set [9]: toxicity, LD50 in mice. To be noted: administered intravenously. In kind it is in vivo.
The test system of data set [10] is Streptococcus pyogenes C203. In words: agar-dilution MIC. Type of data set: cell-based.
Experimental: as §1
The test system of data set [11] is Streptococcus pneumoniae Park I. Type of data set: cell-based. To be noted: agar dilution. On the technique in general: In agar dilution the substance is mixed into plates at graded concentrations.
Experimental: as §1
Data set [12] has as its system Staphylococcus aureus. In words: experimental bacterial infection in mice, ED50. Type of data set: in vivo. As to conditions: two doses.

These results are taken from patent USRE32311E.

By MIC is commonly meant the smallest concentration in the dilution series that meets the test's criterion for growth inhibition. Low readings indicate a more susceptible organism, high ones a less susceptible organism.

Converted amounts (≈) assume the structure as drawn.

Regarding `CCCCCCCCCCCC(=O)N[C@H](Cc1ccccc1)C(=O)N[C@@H](Cc1c[nH]c2ccccc12)C(=O)N[C@H](CC(N)=O)C(=O)N[C@@H](CC(=O)O)C(=O)N[C@@H]1C(=O)NCC(=O)N[C@@H](CCCN)C(=O)N[C@@H](CC(=O)O)C(=O)N[C@H](C)C(=O)N[C@@H](CC(=O)O)C(=O)NCC(=O)N[C@H](CO)C(=O)N[C@@H]([C@H](C)CC(=O)O)C(=O)N[C@@H](CC(=O)c2ccccc2N)C(=O)O[C@@H]1C` [Compound 1], the MIC amounted to 0.5 µg/mL (≈ 0.278 µM) in data set [1]; 0.5 µg/mL (≈ 0.278 µM) in data set [2]; 1 µg/mL (≈ 0.557 µM) in data set [3]; 2 µg/mL (≈ 1.11 µM) in data set [4]; 1 µg/mL (≈ 0.557 µM) in data set [5]; 1 µg/mL (≈ 0.557 µM) in [6]. For the same compound, the minimum inhibitory concentration (MIC) in data set [7] turned out to be 0.5 µg/mL (≈ 0.278 µM). In addition, the “ED50 Streptococcus pyogenes Oral” value in [8] is on record as more than 200 mg/kg × 2. Further, in [9], the “LD50 in Mice” value is given as 250 mg/kg.

With `CCCCCCCCCCCCCCCC(=O)N[C@@H](Cc1c[nH]c2ccccc12)C(=O)N[C@@H](CC(N)=O)C(=O)N[C@@H](CC(=O)O)C(=O)N[C@@H]1C(=O)NCC(=O)N[C@@H](CCCN)C(=O)N[C@@H](CC(=O)O)C(=O)N[C@H](C)C(=O)N[C@@H](CC(=O)O)C(=O)NCC(=O)N[C@H](CO)C(=O)N[C@@H]([C@H](C)CC(=O)O)C(=O)N[C@@H](CC(=O)c2ccccc2N)C(=O)O[C@@H]1C` [Compound 10], the MIC was found to be 2.1 µg/mL (≈ 1.23 µM) in data set [4], 0.06 µg/mL (≈ 0.0352 µM) in data set [10], 0.25 µg/mL (≈ 0.147 µM) in [11] and 2.1 µg/mL (≈ 1.23 µM) in data set [7]. The “ED50 Streptococcus pyogenes Subcutaneous” value in [8] was 0.69 mg/kg × 2. The “LD50 in Mice” value in data set [9] is reported as 450 mg/kg.

Take `CCCCCC(=O)N[C@@H](Cc1c[nH]c2ccccc12)C(=O)NCCC[C@@H]1NC(=O)CNC(=O)[C@@H](NC(=O)[C@H](CC(=O)O)NC(=O)[C@@H](CC(N)=O)NC(=O)[C@H](Cc2c[nH]c3ccccc23)NC(=O)CCCCCCCCC(C)CC)[C@@H](C)OC(=O)[C@H](CC(=O)c2ccccc2N)NC(=O)[C@H]([C@H](C)CC(=O)O)NC(=O)[C@@H](CO)NC(=O)CNC(=O)[C@H](CC(=O)O)NC(=O)[C@@H](C)NC(=O)[C@H](CC(=O)O)NC1=O` (stereo partly shown) [Compound 29]: the minimum inhibitory concentration (MIC) is 1 µg/mL (≈ 0.514 µM) in data set [3], 8 µg/mL (≈ 4.11 µM) in data set [6] and 32 µg/mL (≈ 16.4 µM) in data set [7]. Moreover, in [8], the “ED50 Streptococcus pyogenes Oral” value is recorded as more than 200 mg/kg × 2. The “LD50 in Mice” value in data set [9] stood at 37.5 mg/kg.

As to `CCCCCCCCCCCC(=O)NCCCCC(=O)N[C@@H](Cc1c[nH]c2ccccc12)C(=O)N[C@H](CC(N)=O)C(=O)N[C@@H](CC(=O)O)C(=O)N[C@@H]1C(=O)NCC(=O)N[C@@H](CCCN)C(=O)N[C@@H](CC(=O)O)C(=O)N[C@H](C)C(=O)N[C@@H](CC(=O)O)C(=O)NCC(=O)N[C@H](CO)C(=O)N[C@@H]([C@H](C)CC(=O)O)C(=O)N[C@@H](CC(=O)c2ccccc2N)C(=O)O[C@@H]1C` [Compound 2], the MIC in data set [1] is 4 µg/mL (≈ 2.29 µM); in [2], 4 µg/mL (≈ 2.29 µM); in data set [3], 4 µg/mL (≈ 2.29 µM); in data set [4] it was 4 µg/mL (≈ 2.29 µM); in [5], 2 µg/mL (≈ 1.14 µM); in data set [10] it was 1 µg/mL (≈ 0.572 µM). The MIC in data set [11] came to 4 µg/mL (≈ 2.29 µM); in [6], 32 µg/mL (≈ 18.3 µM); in [7], 8 µg/mL (≈ 4.58 µM). Besides, the “ED50 Streptococcus pyogenes Oral” value in data set [8] was 117 mg/kg × 2. Also, the “LD50 in Mice” value in [9] was more than 600 mg/kg.

`CCCCCCCCCCCC(=O)Nc1ccc(C(=O)N[C@@H](Cc2c[nH]c3ccccc23)C(=O)N[C@H](CC(N)=O)C(=O)N[C@@H](CC(=O)O)C(=O)N[C@@H]2C(=O)NCC(=O)N[C@@H](CCCN)C(=O)N[C@@H](CC(=O)O)C(=O)N[C@H](C)C(=O)N[C@@H](CC(=O)O)C(=O)NCC(=O)N[C@H](CO)C(=O)N[C@@H]([C@H](C)CC(=O)O)C(=O)N[C@@H](CC(=O)c3ccccc3N)C(=O)O[C@@H]2C)cc1` [Compound 4] showed a minimal inhibitory concentration (MIC) in data set [1] of 4 µg/mL (≈ 2.26 µM). In data set [3], the minimum inhibitory concentration (MIC) came out at 8 µg/mL (≈ 4.53 µM). Moreover, the “ED50 Staphylococcus aureus Subcutaneous” value in [12] was less than 5 mg/kg × 2. In data set [8], the “ED50 Streptococcus pyogenes Oral” value is reported as more than 200 mg/kg × 2 and the “ED50 Streptococcus pyogenes Subcutaneous” value was 18.8 mg/kg × 2. Also, the “LD50 in Mice” value in data set [9] is more than 300 mg/kg.

Take `CCCCCCCCC(=O)N[C@@H](Cc1ccccc1)C(=O)N[C@@H](Cc1c[nH]c2ccccc12)C(=O)N[C@H](CC(N)=O)C(=O)N[C@@H](CC(=O)O)C(=O)N[C@@H]1C(=O)NCC(=O)N[C@@H](CCCN)C(=O)N[C@@H](CC(=O)O)C(=O)N[C@H](C)C(=O)N[C@@H](CC(=O)O)C(=O)NCC(=O)N[C@H](CO)C(=O)N[C@@H]([C@H](C)CC(=O)O)C(=O)N[C@@H](CC(=O)c2ccccc2N)C(=O)O[C@@H]1C` [Compound 18]: the minimal inhibitory concentration (MIC) in [1] amounted to 2 µg/mL (≈ 1.14 µM); in [2] it was 2 µg/mL (≈ 1.14 µM); in [3] it was 4 µg/mL (≈ 2.28 µM); in data set [4], 4 µg/mL (≈ 2.28 µM); in [5], 2 µg/mL (≈ 1.14 µM); in data set [10], 0.5 µg/mL (≈ 0.285 µM). Further, the values for the MIC in [6] and in [7] were 32 µg/mL (≈ 18.2 µM) and 8 µg/mL (≈ 4.56 µM), respectively. Besides, the “ED50 Staphylococcus aureus Subcutaneous” value in data set [12] is 1.38 mg/kg × 2. In data set [8], the “ED50 Streptococcus pyogenes Oral” value was determined as 184 mg/kg × 2. Also, in data set [8], the “ED50 Streptococcus pyogenes Subcutaneous” value stood at 0.59 mg/kg × 2. In data set [9], the “LD50 in Mice” value is on record as more than 600 mg/kg.

With `CCCCCCCCCCC(=O)N[C@@H](Cc1ccccc1)C(=O)N[C@@H](Cc1c[nH]c2ccccc12)C(=O)N[C@H](CC(N)=O)C(=O)N[C@@H](CC(=O)O)C(=O)N[C@@H]1C(=O)NCC(=O)N[C@@H](CCCN)C(=O)N[C@@H](CC(=O)O)C(=O)N[C@H](C)C(=O)N[C@@H](CC(=O)O)C(=O)NCC(=O)N[C@H](CO)C(=O)N[C@@H]([C@H](C)CC(=O)O)C(=O)N[C@@H](CC(=O)c2ccccc2N)C(=O)O[C@@H]1C` [Compound 20], the MIC amounted to 0.5 µg/mL (≈ 0.281 µM) in data set [1]; 0.5 µg/mL (≈ 0.281 µM) in data set [2]; 2 µg/mL (≈ 1.12 µM) in data set [3]; 2 µg/mL (≈ 1.12 µM) in [4]; 2 µg/mL (≈ 1.12 µM) in data set [5]; 4 µg/mL (≈ 2.24 µM) in data set [6]. The compound further gave an MIC in data set [7] of 2 µg/mL (≈ 1.12 µM). Further, in data set [12], the “ED50 Staphylococcus aureus Subcutaneous” value is given as 1.25 mg/kg × 2. Also, the “ED50 Streptococcus pyogenes Oral” value in [8] is given as more than 200 mg/kg × 2. Further, the “ED50 Streptococcus pyogenes Subcutaneous” value in data set [8] is on record as 0.35 mg/kg × 2. Further, in data set [9], the “LD50 in Mice” value was determined as 400 mg/kg.

On to `CCCCCCCCCCC(=O)N[C@@H](Cc1ccccc1)C(=O)NCCC[C@@H]1NC(=O)CNC(=O)[C@@H](NC(=O)[C@H](CC(=O)O)NC(=O)[C@@H](CC(N)=O)NC(=O)[C@@H](N)Cc2c[nH]c3ccccc23)[C@@H](C)OC(=O)[C@H](CC(=O)c2ccccc2N)NC(=O)[C@H]([C@H](C)CC(=O)O)NC(=O)[C@@H](CO)NC(=O)CNC(=O)[C@H](CC(=O)O)NC(=O)[C@@H](C)NC(=O)[C@H](CC(=O)O)NC1=O` [Compound 26], for which the MIC in data set [1] turned out to be 8 µg/mL (≈ 4.49 µM); in data set [10], 1 µg/mL (≈ 0.561 µM); in data set [7] it was 32 µg/mL (≈ 18 µM). Also, the “ED50 Staphylococcus aureus Subcutaneous” value in data set [12] turned out to be 9.2 mg/kg × 2. For the same compound, the “ED50 Streptococcus pyogenes Oral” value in data set [8] is recorded as more than 200 mg/kg × 2. Further, the “ED50 Streptococcus pyogenes Subcutaneous” value in data set [8] is more than 18 mg/kg × 2.

For `CCCCCCCCCCCCC(=O)N[C@@H](Cc1ccccc1)C(=O)N[C@@H](Cc1c[nH]c2ccccc12)C(=O)N[C@H](CC(N)=O)C(=O)N[C@@H](CC(=O)O)C(=O)N[C@@H]1C(=O)NCC(=O)N[C@@H](CCCN)C(=O)N[C@@H](CC(=O)O)C(=O)N[C@H](C)C(=O)N[C@@H](CC(=O)O)C(=O)NCC(=O)N[C@H](CO)C(=O)N[C@@H]([C@H](C)CC(=O)O)C(=O)N[C@@H](CC(=O)c2ccccc2N)C(=O)O[C@@H]1C` [Compound 21], the MIC in data set [1] worked out at 0.5 µg/mL (≈ 0.276 µM); in data set [2], 0.5 µg/mL (≈ 0.276 µM); in [3] it was 2 µg/mL (≈ 1.11 µM); in [4], 2 µg/mL (≈ 1.11 µM); in data set [5], 2 µg/mL (≈ 1.11 µM); in data set [6] it was 1 µg/mL (≈ 0.553 µM). In addition, in data set [7], the MIC was 0.25 µg/mL (≈ 0.138 µM). Further, the “ED50 Staphylococcus aureus Subcutaneous” value in data set [12] is reported as 0.76 mg/kg × 2. In addition, the “ED50 Streptococcus pyogenes Oral” value in [8] is given as more than 200 mg/kg × 2. Moreover, the “ED50 Streptococcus pyogenes Subcutaneous” value in [8] came to 0.14 mg/kg × 2.

Consider `CCCCCCCCCC(=O)N[C@@H](Cc1c[nH]c2ccccc12)C(=O)N[C@@H](CC(N)=O)C(=O)N[C@@H](CC(=O)O)C(=O)N[C@@H]1C(=O)NCC(=O)N[C@@H](CCCN)C(=O)N[C@@H](CC(=O)O)C(=O)N[C@H](C)C(=O)N[C@@H](CC(=O)O)C(=O)NCC(=O)N[C@H](CO)C(=O)N[C@@H]([C@H](C)CC(=O)O)C(=O)N[C@@H](CC(=O)c2ccccc2N)C(=O)O[C@@H]1C` [Compound 6], for which the minimum inhibitory concentration (MIC) in [1] is 1 µg/mL (≈ 0.617 µM); in data set [2], 2 µg/mL (≈ 1.23 µM); in data set [3], 4 µg/mL (≈ 2.47 µM); in data set [4] it was 2 µg/mL (≈ 1.23 µM); in data set [5] it was 2 µg/mL (≈ 1.23 µM); in [10], 0.5 µg/mL (≈ 0.309 µM). Also, the MIC in data set [11] was determined as 2 µg/mL (≈ 1.23 µM); in data set [6], 16 µg/mL (≈ 9.87 µM); in [7] it was 2 µg/mL (≈ 1.23 µM).
